Active and inactive are the calls of the source. The rule behind the calls is not given here.
Columns and labels:
Mus musculus [1] = test: Anticonvulsant activity in ip dosed Carworth Farm1 mouse assessed as protection against maximal electroshock-induced seizures administered 30 mins prior to 60-Hz current induction; type: functional
Mus musculus [2] = test: Anticonvulsant activity in ip dosed Carworth Farm1 mouse assessed as protection against subcutaneous pentylenetetrazole-induced seizures after 30 mins; type: functional; settings: Carworth Farm1, 0.5 h
Mus musculus [3] = test: Neurotoxicity in Carworth Farm1 mouse assessed as somnolence up to 100 mg/kg, ip; type: toxicity, organism-based; settings: in vivo
Mus musculus [4] = test: Neurotoxicity in Carworth Farm1 mouse assessed as muscle relaxation up to 100 mg/kg, ip; type: toxicity, organism-based; settings: in vivo
Mus musculus [5] = test: Anticonvulsant activity in Carworth Farm1 mouse assessed as protection against maximal electroshock-induced seizures at 100 mg/kg, ip administered 30 mins prior to 60-Hz current induction; type: functional, organism-based
Mus musculus [6] = test: Neurotoxicity in Carworth Farm1 mouse assessed as sedation up to 100 mg/kg, ip; type: toxicity, organism-based; settings: in vivo
Mus musculus [7] = test: Anticonvulsant activity in Carworth Farm1 mouse assessed as protection against subcutaneous pentylenetetrazole-induced seizures at 400 mg/kg, ip after 30 mins; type: functional, organism-based
Mus musculus [8] = test: Anticonvulsant activity in Carworth Farm1 mouse assessed as protection against maximal electroshock-induced seizures at 50 mg/kg, ip administered 30 mins prior to 60-Hz current induction; type: functional, organism-based
Mus musculus [9] = test: Anticonvulsant activity in Carworth Farm1 mouse assessed as protection against maximal electroshock-induced seizures at 50 to 100 mg/kg, ip administered 30 mins prior to 60-Hz current induction; type: functional, organism-based
Mus musculus [10] = test: Anticonvulsant activity in Carworth Farm1 mouse assessed as protection against maximal electroshock-induced seizures at 25 mg/kg, ip administered 30 mins prior to 60-Hz current induction; type: functional, organism-based
Mus musculus [11] = test: Anticonvulsant activity in Carworth Farm1 mouse assessed as protection against subcutaneous pentylenetetrazole-induced seizures at 100 mg/kg, ip after 30 mins; type: functional, organism-based
[12] = Metabolic stability in rat liver microsomes assessed as amount of parent compound remaining after 30 mins; type: ADME; settings: read-out: Stability
Mus musculus [13] = test: Anticonvulsant activity in Carworth Farm1 mouse assessed as protection against maximal electroshock-induced seizures at 400 mg/kg, ip administered 30 mins prior to 60-Hz current induction; type: functional, organism-based
Mus musculus [14] = test: Anticonvulsant activity in Carworth Farm1 mouse assessed as protection against maximal electroshock-induced seizures at 100 to 400 mg/kg, ip administered 30 mins prior to 60-Hz current induction; type: functional, organism-based

| SMILES | Activity (Mus musculus [3]) | Activity (Mus musculus [4]) | Activity (Mus musculus [5]) | Activity (Mus musculus [6]) | Activity (Mus musculus [8]) | also measured |
| --- | --- | --- | --- | --- | --- | --- |
| NS(=O)(=O)Cc1noc2ccccc12 [ZONISAMIDE] | – | – | – | – | – | ED50 (Mus musculus [1]): 20 mg/kg; ED50 (Mus musculus [2]): > 500 mg/kg |
| CN(C)S(=O)(=O)c1cccc([N+](=O)[O-])c1 | Non-Toxic | Non-Toxic | Active | Non-Toxic | – | – |
| Cc1cccc(S(=O)(=O)N(C)C)c1 | Non-Toxic | Non-Toxic | – | Non-Toxic | – | – |
| CCCN(C)S(=O)(=O)c1cccc(Cl)c1 | Non-Toxic | Non-Toxic | – | Non-Toxic | – | – |
| CN(C)S(=O)(=O)c1cc(Cl)cc(Cl)c1 | Non-Toxic | Non-Toxic | Active | Non-Toxic | – | – |
| CCN(CC)S(=O)(=O)c1cccc(Cl)c1 | Non-Toxic | Non-Toxic | Active | Non-Toxic | Active | Activity (Mus musculus [7]): Active |
| CCNC(=O)C1=C(Cl)c2ccccc2S(=O)(=O)N1C | – | – | – | – | – | Activity (Mus musculus [9]): Active |
| CN(CCO)S(=O)(=O)c1cccc(Cl)c1 | Non-Toxic | Non-Toxic | – | Non-Toxic | – | – |
| CC1(C)O[C@@H]2[C@@H](CO[C@@]3(COS(N)(=O)=O)OC(C)(C)O[C@@H]23)O1 [TOPIRAMATE] | – | – | – | – | – | ED50 (Mus musculus [1]): 33 mg/kg; ED50 (Mus musculus [2]): > 800 mg/kg |
| CN(C)S(=O)(=O)c1cccc(F)c1 | Non-Toxic | Non-Toxic | Active | Non-Toxic | Active | Activity (Mus musculus [10]): Active; Activity (Mus musculus [11]): Active |
| CN(C)S(=O)(=O)c1cccc(OC(F)(F)F)c1 | Non-Toxic | Non-Toxic | Active | Non-Toxic | – | – |
| CN(C)S(=O)(=O)c1cccc(C(F)(F)F)c1 | Non-Toxic | Non-Toxic | Active | Non-Toxic | – | Activity (Mus musculus [11]): Active |
| COc1cccc(S(=O)(=O)N(C)C)c1 | Non-Toxic | Non-Toxic | – | Non-Toxic | – | – |
| CN(C)S(=O)(=O)c1cccc(Br)c1 | Non-Toxic | Non-Toxic | Active | Non-Toxic | Active | – |
| O=S(=O)(c1cccc(Cl)c1)N1CCCC1 | Non-Toxic | Non-Toxic | – | Non-Toxic | – | – |
| CN(C)S(=O)(=O)c1cccc(Cl)c1 | Non-Toxic | Non-Toxic | Active | Non-Toxic | Active | Activity (Mus musculus [7]): Active; remaining at 0.5 h [12]: 95%; ED50 (Mus musculus [1]): 12 mg/kg; Activity (Mus musculus [10]): Active; ED50 (Mus musculus [2]): 34 mg/kg; Activity (Mus musculus [11]): Active |
| CN(C)S(=O)(=O)c1cccc(N)c1 | Non-Toxic | Non-Toxic | – | Non-Toxic | – | – |
| CN(C)S(=O)(=O)c1cccc(Oc2ccccc2)c1 | Non-Toxic | Non-Toxic | – | Non-Toxic | – | – |
| CN(C)S(=O)(=O)c1ccc(Cl)cc1 | Non-Toxic | Non-Toxic | Active | Non-Toxic | Active | Activity (Mus musculus [7]): Active; Activity (Mus musculus [10]): Active |
| NS(=O)(=O)c1cccc(Cl)c1 | Non-Toxic | Non-Toxic | Active | Non-Toxic | Active | Activity (Mus musculus [10]): Active |
| CNS(=O)(=O)c1cccc(Cl)c1 | Non-Toxic | Non-Toxic | Active | Non-Toxic | Active | Activity (Mus musculus [7]): Active; Activity (Mus musculus [10]): Active |
| CN(C)S(=O)(=O)c1ccccc1Cl | Non-Toxic | Non-Toxic | Active | Non-Toxic | Active | Activity (Mus musculus [7]): Active; Activity (Mus musculus [13]): Active; Activity (Mus musculus [14]): Active |
| CN(C)S(=O)(=O)c1cc(Cl)ccc1Cl | Non-Toxic | Non-Toxic | – | Non-Toxic | – | – |
| CN(C)S(=O)(=O)c1cccc(C#N)c1 | Non-Toxic | Non-Toxic | Active | Non-Toxic | Active | – |
| CNS(=O)(=O)Cc1cccc(Cl)c1 | Non-Toxic | Non-Toxic | – | Non-Toxic | – | – |
| CN(C)S(=O)(=O)c1ccccc1 | Non-Toxic | Non-Toxic | Active | Non-Toxic | – | – |
| CN(C)S(=O)(=O)c1ccc(Cl)c(Cl)c1 | Non-Toxic | Non-Toxic | Active | Non-Toxic | – | – |

Reference: ChEMBL document CHEMBL3872240, “Simple N,N-dimethyl phenylsulfonamides show potent anticonvulsant effect in two standard epilepsy models” (Bioorg Med Chem Lett, 2017)
